Measured values as given in patent US7074789B2, “Kinase inhibitors” (Amgen Inc., priority 1999, dated 2006).

Key:
Type in all cases: biochemical
ErbB4 = molecular target: T1, ErbB4 (Homo sapiens, UniProt Q15303); assay: Kinase inhibition assay (33P transfer), ErbB4; details: read-out: ErbB4-1
T1 construct: Kinases are expressed as either kinase domains or full length constructs; made in house

Zap-70 = molecular target: T2, Zap-70 (Homo sapiens, UniProt P43403); assay: Kinase inhibition assay (33P transfer), Zap-70; details: read-out: Zap-1
T2 construct: Kinases are expressed as either kinase domains or full length constructs; made in house
T2 sequence (P43403 1-619): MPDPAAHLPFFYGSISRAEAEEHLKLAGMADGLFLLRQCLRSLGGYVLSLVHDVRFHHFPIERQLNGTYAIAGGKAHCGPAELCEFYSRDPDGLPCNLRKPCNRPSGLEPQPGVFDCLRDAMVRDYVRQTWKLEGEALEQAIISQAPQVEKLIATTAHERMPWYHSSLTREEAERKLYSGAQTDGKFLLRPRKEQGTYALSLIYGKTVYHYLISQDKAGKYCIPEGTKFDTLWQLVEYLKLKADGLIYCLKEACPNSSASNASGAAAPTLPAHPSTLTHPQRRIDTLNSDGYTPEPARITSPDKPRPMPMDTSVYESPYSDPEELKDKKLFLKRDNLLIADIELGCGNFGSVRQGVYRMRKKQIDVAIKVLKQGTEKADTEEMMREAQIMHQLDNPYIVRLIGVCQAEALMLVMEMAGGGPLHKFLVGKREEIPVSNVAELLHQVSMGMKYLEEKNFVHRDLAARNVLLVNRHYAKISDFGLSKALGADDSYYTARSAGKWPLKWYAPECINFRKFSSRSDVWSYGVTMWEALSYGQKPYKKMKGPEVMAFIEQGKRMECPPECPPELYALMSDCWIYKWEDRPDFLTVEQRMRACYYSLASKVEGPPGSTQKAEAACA
In short: (§1)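 GST/His-tagged kinase (domain or full length; E. coli or baculovirus) + [33P]ATP on plates coated with poly(Glu,Tyr) 4:1 or poly(Arg,Ser) 3:1; incubate, wash 0.5% H3PO4, add scintillant, count.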

Lck = molecular target: T3, Lck (Homo sapiens, UniProt P06239); assay: Kinase inhibition assay (33P transfer), Lck; details: read-out: Lck-1
T3 construct: Kinases are expressed as either kinase domains or full length constructs; made in house
In short: as §1

AKT = molecular target: T4, AKT (Homo sapiens, UniProt Q9Y243); assay: Kinase inhibition assay (33P transfer), AKT; details: Table 2, kinase inhibition class; read-out: AKT3-1
T4 construct: Kinases are expressed as either kinase domains or full length constructs; made in house
T4 sequence (Q9Y243 whole entry, the tested form may be a part): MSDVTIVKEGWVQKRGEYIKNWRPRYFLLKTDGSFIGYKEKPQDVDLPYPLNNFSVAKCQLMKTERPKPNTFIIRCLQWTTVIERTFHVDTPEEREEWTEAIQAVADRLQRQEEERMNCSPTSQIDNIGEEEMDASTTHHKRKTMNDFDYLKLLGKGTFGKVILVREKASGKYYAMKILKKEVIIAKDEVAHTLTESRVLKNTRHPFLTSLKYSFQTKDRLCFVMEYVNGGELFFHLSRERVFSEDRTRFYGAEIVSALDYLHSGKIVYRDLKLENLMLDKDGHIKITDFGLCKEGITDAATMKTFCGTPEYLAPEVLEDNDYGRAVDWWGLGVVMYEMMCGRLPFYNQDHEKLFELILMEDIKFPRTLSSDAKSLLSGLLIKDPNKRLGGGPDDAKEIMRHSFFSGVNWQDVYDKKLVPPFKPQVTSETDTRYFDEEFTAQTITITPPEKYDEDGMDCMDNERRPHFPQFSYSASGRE
In short: as §1

EGFR = molecular target: T5, EGFR (Homo sapiens, UniProt P00533); assay: Kinase inhibition assay (33P transfer), EGFR; details: Table 2, kinase inhibition class; read-out: EGFR-1
T5 construct: Kinases are expressed as either kinase domains or full length constructs; made in house
In short: (§2)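 Using immobilised substrate copolymers (poly(Glu,Tyr) 4:1; poly(Arg,Ser) 3:1) and [33P]ATP, purified fusion kinases were allowed to react; plates were then rinsed in 0.5% phosphoric acid and counted in a scintillation detector. Half-maximal inhibition of label transfer defines IC50.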

Tek = molecular target: T6, Tek (Homo sapiens, UniProt Q02763); assay: Kinase inhibition assay (33P transfer), Tek; details: read-out: Tek-1
T6 construct: Kinases are expressed as either kinase domains or full length constructs; made in house
T6 sequence (Q02763 23-1124, species assumed): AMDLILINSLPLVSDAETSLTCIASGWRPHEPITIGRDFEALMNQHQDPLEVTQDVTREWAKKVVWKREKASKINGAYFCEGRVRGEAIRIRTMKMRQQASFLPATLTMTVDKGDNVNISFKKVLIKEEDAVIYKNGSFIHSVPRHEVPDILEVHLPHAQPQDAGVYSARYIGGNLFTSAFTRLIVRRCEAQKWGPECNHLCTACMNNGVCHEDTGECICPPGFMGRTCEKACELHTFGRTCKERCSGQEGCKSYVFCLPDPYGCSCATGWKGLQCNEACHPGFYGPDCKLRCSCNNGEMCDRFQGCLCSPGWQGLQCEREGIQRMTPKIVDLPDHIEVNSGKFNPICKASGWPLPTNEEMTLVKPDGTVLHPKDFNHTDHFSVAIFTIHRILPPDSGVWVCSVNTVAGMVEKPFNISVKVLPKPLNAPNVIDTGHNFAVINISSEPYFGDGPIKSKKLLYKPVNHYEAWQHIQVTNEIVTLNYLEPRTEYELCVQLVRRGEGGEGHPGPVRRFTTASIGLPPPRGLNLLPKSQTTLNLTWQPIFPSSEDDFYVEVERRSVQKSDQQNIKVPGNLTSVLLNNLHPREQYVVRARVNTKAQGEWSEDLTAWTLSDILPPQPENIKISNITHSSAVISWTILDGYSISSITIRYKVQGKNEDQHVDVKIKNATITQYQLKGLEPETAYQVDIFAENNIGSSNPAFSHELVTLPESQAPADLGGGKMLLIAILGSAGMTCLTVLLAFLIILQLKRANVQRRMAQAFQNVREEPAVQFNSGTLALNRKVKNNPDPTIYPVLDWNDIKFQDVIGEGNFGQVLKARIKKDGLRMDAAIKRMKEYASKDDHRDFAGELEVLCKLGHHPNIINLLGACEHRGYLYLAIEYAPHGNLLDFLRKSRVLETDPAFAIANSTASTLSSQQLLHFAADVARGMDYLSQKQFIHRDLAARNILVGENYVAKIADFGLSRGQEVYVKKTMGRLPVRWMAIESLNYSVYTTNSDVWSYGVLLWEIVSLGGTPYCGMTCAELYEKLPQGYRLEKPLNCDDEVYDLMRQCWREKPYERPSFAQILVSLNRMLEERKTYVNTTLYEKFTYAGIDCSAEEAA
In short: as §2

ErbB2 = molecular target: T7, ErbB2 (Homo sapiens, UniProt P04626); assay: Kinase inhibition assay (33P transfer), ErbB2; details: read-out: ErbB2-2
T7 construct: Kinases are expressed as either kinase domains or full length constructs; made in house
In short: as §2

Kdr = molecular target: T8, Kdr (Homo sapiens, UniProt P35968); assay: Kinase inhibition assay (33P transfer), Kdr; details: read-out: KDR-1
T8 construct: Kinases are expressed as either kinase domains or full length constructs; made in house
In short: as §1

IGFR-1 = molecular target: T9, IGFR-1 (Homo sapiens, UniProt P08069); assay: Kinase inhibition assay, IGFR-1 (Table 2); details: Table 2, kinase inhibition class
T9 construct: Kinases are expressed as either kinase domains or full length constructs; made in house

Src = molecular target: T10, Src (Homo sapiens, UniProt P12931); assay: Kinase inhibition assay (33P transfer), Src; details: Table 6, Src-1 kinase inhibition class
T10 construct: Kinases are expressed as either kinase domains or full length constructs; made in house
T10 sequence (P12931 whole entry, species assumed, the tested form may be a part): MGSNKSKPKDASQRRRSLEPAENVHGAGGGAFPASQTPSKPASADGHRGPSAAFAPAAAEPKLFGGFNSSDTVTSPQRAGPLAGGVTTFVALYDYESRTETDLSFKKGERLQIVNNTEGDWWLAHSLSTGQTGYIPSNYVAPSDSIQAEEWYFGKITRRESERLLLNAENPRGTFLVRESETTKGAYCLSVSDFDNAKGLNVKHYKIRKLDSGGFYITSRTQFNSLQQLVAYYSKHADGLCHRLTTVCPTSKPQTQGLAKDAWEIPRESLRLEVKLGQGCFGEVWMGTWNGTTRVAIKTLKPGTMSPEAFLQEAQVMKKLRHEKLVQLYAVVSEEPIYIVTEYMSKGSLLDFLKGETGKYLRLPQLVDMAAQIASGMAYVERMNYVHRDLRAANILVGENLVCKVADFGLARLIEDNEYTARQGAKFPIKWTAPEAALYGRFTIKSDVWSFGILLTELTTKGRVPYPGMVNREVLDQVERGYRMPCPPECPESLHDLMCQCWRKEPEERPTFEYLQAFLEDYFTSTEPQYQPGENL
In short: as §2

Hck-1 = molecular target: T11, Hck-1 (Homo sapiens, UniProt P08631); assay: Kinase inhibition assay (33P transfer), Hck; details: Table 6, Hck-1 kinase inhibition class
T11 construct: Kinases are expressed as either kinase domains or full length constructs; made in house

Ret-1 = molecular target: T12, Ret-1 (Homo sapiens, UniProt P07949); assay: Kinase inhibition assay (33P transfer), Ret; details: Table 6, Ret-1 kinase inhibition class
T12 construct: Kinases are expressed as either kinase domains or full length constructs; made in house
T12 sequence (P07949 29-1114): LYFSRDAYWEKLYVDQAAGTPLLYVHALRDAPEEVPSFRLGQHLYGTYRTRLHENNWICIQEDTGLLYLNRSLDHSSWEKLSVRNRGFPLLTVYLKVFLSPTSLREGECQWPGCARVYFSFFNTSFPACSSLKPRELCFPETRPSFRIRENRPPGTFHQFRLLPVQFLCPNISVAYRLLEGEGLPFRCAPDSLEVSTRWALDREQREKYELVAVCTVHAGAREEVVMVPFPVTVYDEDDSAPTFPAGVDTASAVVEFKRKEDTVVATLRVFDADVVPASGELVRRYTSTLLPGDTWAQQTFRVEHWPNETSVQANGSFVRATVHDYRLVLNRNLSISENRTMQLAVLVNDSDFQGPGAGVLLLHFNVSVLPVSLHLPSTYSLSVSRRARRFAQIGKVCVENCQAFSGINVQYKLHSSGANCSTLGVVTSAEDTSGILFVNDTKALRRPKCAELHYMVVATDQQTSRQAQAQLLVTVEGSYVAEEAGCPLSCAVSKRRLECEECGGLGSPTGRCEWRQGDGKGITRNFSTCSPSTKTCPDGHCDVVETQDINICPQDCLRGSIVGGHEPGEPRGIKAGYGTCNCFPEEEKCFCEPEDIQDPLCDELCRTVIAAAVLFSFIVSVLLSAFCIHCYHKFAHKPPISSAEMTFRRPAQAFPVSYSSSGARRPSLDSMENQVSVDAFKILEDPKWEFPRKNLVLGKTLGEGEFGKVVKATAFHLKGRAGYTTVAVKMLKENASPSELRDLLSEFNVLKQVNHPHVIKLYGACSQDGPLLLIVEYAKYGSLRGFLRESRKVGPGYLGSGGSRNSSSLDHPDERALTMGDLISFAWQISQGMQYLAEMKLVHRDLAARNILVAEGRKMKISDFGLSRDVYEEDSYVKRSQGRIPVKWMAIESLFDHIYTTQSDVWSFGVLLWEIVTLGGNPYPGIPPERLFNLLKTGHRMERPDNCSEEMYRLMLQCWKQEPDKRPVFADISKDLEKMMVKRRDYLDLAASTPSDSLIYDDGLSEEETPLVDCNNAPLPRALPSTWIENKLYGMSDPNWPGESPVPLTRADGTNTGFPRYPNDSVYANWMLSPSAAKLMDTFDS

Fyn = molecular target: T13, Fyn (Homo sapiens, UniProt P06241); assay: Kinase inhibition assay (33P transfer), Fyn; details: read-out: Fyn-1
T13 construct: Kinases are expressed as either kinase domains or full length constructs; made in house
T13 sequence (P06241 whole entry, species assumed, the tested form may be a part): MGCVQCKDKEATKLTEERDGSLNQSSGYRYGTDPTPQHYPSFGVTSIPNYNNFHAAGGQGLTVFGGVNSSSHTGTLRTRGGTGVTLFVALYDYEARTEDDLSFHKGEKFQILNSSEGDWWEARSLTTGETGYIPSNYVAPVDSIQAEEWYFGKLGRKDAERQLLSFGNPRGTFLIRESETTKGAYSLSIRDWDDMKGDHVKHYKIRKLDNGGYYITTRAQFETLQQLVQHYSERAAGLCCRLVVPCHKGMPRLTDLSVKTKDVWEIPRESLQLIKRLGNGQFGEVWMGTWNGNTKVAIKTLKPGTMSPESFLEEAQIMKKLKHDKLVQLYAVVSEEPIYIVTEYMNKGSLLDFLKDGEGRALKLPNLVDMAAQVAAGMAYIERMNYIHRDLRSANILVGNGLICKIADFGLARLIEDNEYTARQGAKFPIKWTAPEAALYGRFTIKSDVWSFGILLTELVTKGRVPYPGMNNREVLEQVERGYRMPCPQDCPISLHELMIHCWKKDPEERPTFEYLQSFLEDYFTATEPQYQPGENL
In short: as §2

Itk = molecular target: T14, Itk (Homo sapiens, UniProt Q08881); assay: Kinase inhibition assay (33P transfer), Itk; details: read-out: Itk-1
T14 construct: Kinases are expressed as either kinase domains or full length constructs; made in house
T14 sequence (Q08881 1-620): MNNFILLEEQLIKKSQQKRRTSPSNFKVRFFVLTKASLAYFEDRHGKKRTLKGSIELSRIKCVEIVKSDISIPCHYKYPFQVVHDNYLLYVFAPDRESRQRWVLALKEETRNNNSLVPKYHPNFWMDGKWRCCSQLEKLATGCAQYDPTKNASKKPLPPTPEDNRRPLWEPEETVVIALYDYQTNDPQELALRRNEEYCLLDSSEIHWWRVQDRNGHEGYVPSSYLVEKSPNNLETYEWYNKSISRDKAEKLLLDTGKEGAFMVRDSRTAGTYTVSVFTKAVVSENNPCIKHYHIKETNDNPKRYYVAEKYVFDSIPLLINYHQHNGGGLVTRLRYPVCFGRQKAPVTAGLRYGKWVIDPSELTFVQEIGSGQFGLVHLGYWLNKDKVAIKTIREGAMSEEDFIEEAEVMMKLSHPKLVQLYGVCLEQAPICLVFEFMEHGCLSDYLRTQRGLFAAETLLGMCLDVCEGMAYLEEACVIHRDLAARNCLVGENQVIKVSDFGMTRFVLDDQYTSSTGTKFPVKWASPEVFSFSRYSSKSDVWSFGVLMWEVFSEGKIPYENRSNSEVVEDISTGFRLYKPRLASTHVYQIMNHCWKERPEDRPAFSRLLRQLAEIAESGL
In short: as §2

Flt-1 = molecular target: T15, Flt-1 (Homo sapiens, UniProt P17948); assay: Kinase inhibition assay (33P transfer), Flt-1
T15 construct: Kinases are expressed as either kinase domains or full length constructs; made in house
In short: as §2

c-Met = molecular target: T16, c-Met (Homo sapiens, UniProt P08581); assay: Kinase inhibition assay (33P transfer), c-Met; details: Table 2, kinase inhibition class; read-out: Met-1
T16 construct: Kinases are expressed as either kinase domains or full length constructs; made in house
In short: as §2

FGFR1 = molecular target: T17, FGFR1 (Homo sapiens, UniProt P11362); assay: Kinase inhibition assay (33P transfer), FGFR1; details: read-out: FGFR1-1
T17 construct: Kinases are expressed as either kinase domains or full length constructs; made in house

PDGFRB = molecular target: T18, PDGFRB (Homo sapiens, UniProt P09619); assay: Kinase inhibition assay (33P transfer), PDGFRB; details: read-out: PDGFRB-1
T18 construct: Kinases are expressed as either kinase domains or full length constructs; made in house
T18 sequence (P09619 33-1106, species assumed): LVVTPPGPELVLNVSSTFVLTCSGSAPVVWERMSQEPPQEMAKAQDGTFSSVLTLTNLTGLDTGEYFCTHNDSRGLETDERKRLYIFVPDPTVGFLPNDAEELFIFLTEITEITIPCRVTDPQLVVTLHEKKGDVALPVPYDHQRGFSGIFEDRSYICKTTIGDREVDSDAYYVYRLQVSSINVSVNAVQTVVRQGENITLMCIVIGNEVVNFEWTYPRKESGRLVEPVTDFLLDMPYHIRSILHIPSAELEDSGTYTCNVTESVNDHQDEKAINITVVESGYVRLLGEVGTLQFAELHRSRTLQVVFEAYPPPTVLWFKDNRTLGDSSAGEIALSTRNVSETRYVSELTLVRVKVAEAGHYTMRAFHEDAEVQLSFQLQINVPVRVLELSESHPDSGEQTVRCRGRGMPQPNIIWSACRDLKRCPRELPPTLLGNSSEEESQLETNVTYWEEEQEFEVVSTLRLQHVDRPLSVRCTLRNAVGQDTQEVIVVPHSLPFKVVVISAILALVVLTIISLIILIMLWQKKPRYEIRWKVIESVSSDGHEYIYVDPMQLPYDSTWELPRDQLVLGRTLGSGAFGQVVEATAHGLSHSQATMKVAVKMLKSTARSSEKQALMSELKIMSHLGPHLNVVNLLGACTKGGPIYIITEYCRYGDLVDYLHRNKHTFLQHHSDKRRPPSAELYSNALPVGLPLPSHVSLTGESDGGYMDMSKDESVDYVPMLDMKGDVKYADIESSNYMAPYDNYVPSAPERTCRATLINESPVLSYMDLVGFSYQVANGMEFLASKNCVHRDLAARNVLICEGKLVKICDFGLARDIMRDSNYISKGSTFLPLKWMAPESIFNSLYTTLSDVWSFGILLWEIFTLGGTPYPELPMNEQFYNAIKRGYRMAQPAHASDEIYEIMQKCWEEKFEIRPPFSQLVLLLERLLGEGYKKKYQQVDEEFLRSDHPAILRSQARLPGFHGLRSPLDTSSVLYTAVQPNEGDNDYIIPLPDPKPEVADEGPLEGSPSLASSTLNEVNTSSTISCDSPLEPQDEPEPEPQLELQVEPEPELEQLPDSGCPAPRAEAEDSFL

Lyn = molecular target: T19, Lyn (Homo sapiens, UniProt P07948); assay: Kinase inhibition assay (33P transfer), Lyn; details: Table 6, Lyn-1 kinase inhibition class
T19 construct: Kinases are expressed as either kinase domains or full length constructs; made in house
In short: as §2

Compound | IC50 (ErbB4) | IC50 (Zap-70) | IC50 (Lck) | IC50 (AKT) | IC50 (EGFR) | IC50 (Tek) | IC50 (ErbB2) | IC50 (Kdr) | IC50 (IGFR-1) | IC50 (Src) | IC50 (Hck-1) | IC50 (Ret-1) | IC50 (Fyn) | IC50 (Itk) | IC50 (Flt-1) | IC50 (c-Met) | IC50 (FGFR1) | IC50 (PDGFRB) | IC50 (Lyn)
COc1cc(Nc2ncnc(-n3c(NCc4cccs4)nc4ccccc43)n2)cc(OC)c1OC [Compound 950] | 0.817 to 4.9 µM | > 9.19 µM | < 0.817 µM | > 9.19 µM | 0.817 to 4.9 µM | 4.9 to 7.15 µM | 0.817 to 4.9 µM | < 0.817 µM | > 9.19 µM | 0.817 to 4.9 µM | > 9.19 µM | < 0.817 µM | 0.817 to 4.9 µM | > 9.19 µM | < 0.817 µM | > 9.19 µM | < 0.817 µM | < 0.817 µM | < 0.817 µM
COc1cc(Nc2ncnc(-n3c(NCc4ccc(F)cc4Cl)nc4ccccc43)n2)cc(OC)c1OC [Compound 951] | > 8.4 µM | > 8.4 µM | 0.746 to 4.48 µM | > 8.4 µM | 6.53 to 8.4 µM | 4.48 to 6.53 µM | > 8.4 µM | < 0.746 µM | > 8.4 µM | > 8.4 µM | > 8.4 µM | < 0.746 µM | > 8.4 µM | > 8.4 µM | > 8.4 µM | > 8.4 µM | < 0.746 µM | < 0.746 µM | > 8.4 µM
COc1cc(Nc2ncnc(-n3c(NCc4ccc([N+](=O)[O-])cc4)nc4ccccc43)n2)cc(OC)c1OC [Compound 952] | > 8.51 µM | > 8.51 µM | 4.54 to 6.62 µM | > 8.51 µM | > 8.51 µM | 4.54 to 6.62 µM | 4.54 to 6.62 µM | < 0.757 µM | 0.757 to 4.54 µM | 6.62 to 8.51 µM | 6.62 to 8.51 µM | < 0.757 µM | 4.54 to 6.62 µM | 6.62 to 8.51 µM | 0.757 to 4.54 µM | > 8.51 µM | 0.757 to 4.54 µM | 0.757 to 4.54 µM | < 0.757 µM
COc1cc(Nc2ncnc(Nc3cccc4ccccc34)n2)cc(OCCN2CCOCC2)c1OC [Compound 953] | 0.796 to 4.78 µM | > 8.95 µM | < 0.796 µM | > 8.95 µM | < 0.796 µM | 0.796 to 4.78 µM | 0.796 to 4.78 µM | 0.796 to 4.78 µM | 4.78 to 6.96 µM | < 0.796 µM | 0.796 to 4.78 µM | 0.796 to 4.78 µM | < 0.796 µM | 6.96 to 8.95 µM | 0.796 to 4.78 µM | > 8.95 µM | 0.796 to 4.78 µM | < 0.796 µM | < 0.796 µM
COc1cc(Nc2ncnc(Nc3ccc(Cl)c4ccccc34)n2)cc(OC)c1OC [Compound 1031] | > 10.3 µM | > 10.3 µM | 0.913 to 5.48 µM | > 10.3 µM | < 0.913 µM | > 10.3 µM | 0.913 to 5.48 µM | 5.48 to 7.99 µM | 0.913 to 5.48 µM | 5.48 to 7.99 µM | > 10.3 µM | 0.913 to 5.48 µM | > 10.3 µM | > 10.3 µM | > 10.3 µM | > 10.3 µM | 0.913 to 5.48 µM | < 0.913 µM | 0.913 to 5.48 µM
